Here are results for two molecules from patent EP1408948B1, “THYROID THERAPEUTIC AGENT COMPRISING PARTIAL GLYCERIDES AND DEXTRINE” (BERLIN-CHEMIE Aktiengesellschaft, priority 2001, dated 2003).

For series [1] the following is noted: oral, steady state after 6 weeks of medication, patients on long-term medication; cited from earlier work.
Series [2] can be described thus: Bioavailability studies of levothyroxine sodium tablets of different strengths (pharmacokinetic parameters, dose linearity). Type of series: in vivo. The conditions noted are these: tablets of 50, 100, 150 and 200 µg made from one base formulation, oral. How it is done:
Die ermittelten pharmakokinetischen Parameter der in vivo geprüften 50, 100, 150 und 200 µg Levothyroxin-Natrium enthaltenden Tabletten sind in Tabelle 1 aufgeführt.

Series [3] in a line: In vitro release of Levothyroxin-Natrium from tablets, paddle apparatus. Type of series: physicochemical. Conditions: tablets of 50, 100, 150, 200 µg, 100 rpm, 500 ml phosphate buffer pH 7,4, data only in Fig. 1-4. An excerpt:
Die folgenden in vitro Untersuchungen der erfindungsgemäß hergestellten Tabletten belegen, dass der Wirkstoff Levothyroxin-Natrium aus den Tabletten der unterschiedlichen Dosierungen in gleicher Geschwindigkeit und […] Ausmaß freigesetzt und somit dem Körper zur Verfügung gestellt werden kann. Die Untersuchungen zur Freisetzung wurden mit den Tabletten gemäß den Beispielen 2 und 3 durchgeführt. In den Figuren 1 bis 4 ist die jeweilige Freisetzung dargestellt. An […] % angegeben, an […] Zeit aufgetragen. Die Balken geben den Vertrauensbereich des […] von Levothyroxin-Natrium aus Tabletten (50 μg), Tablettenmasse 52 mg, Paddle-Apparatur, 100 rpm, […]: 500 ml Phosphatpuffer pH 7,4; • Fig. 2: Freisetzung von Levothyroxin-Natrium aus Tabletten (100 μg), Tablettenmasse 104 mg, Paddle-Apparatur, 100 rpm, […]: 500 ml Phosphatpuffer pH 7, 4; • Fig. 3: Freisetzung von Levothyroxin-Natrium aus Tabletten (150 μg), Tablettenmasse 156 mg, Paddle-Apparatur, 100 rpm, […]: 500 ml Phosphatpuffer pH 7,4 und • Fig. 4: Freisetzung von Levothyroxin-Natrium aus Tabletten (200 μg), Tablettenmasse 208 mg, Paddle-Apparatur, 100 rpm, […]: 500 ml Phosphatpuffer pH 7,4.

Regarding `N[C@@H](Cc1cc(I)c(Oc2cc(I)c(O)c(I)c2)c(I)c1)C(=O)O` [L-Thyroxin], the “Kinetik (L-Thyroxin-Serumkonzentration, AUC 0 x 24, Cmax, Ctrough)” value in series [1] was “nicht-linearen Kinetik”.

For the molecule `N[C@@H](Cc1cc(I)c(Oc2cc(I)c(O)c(I)c2)c(I)c1)C(=O)O` [Levothyroxin-Natrium], in series [2], the Dosislinearität result was “klare Dosislinearität”. Also, the “Freisetzung von Levothyroxin-Natrium aus Tabletten” value in series [3] is recorded as “in gleicher Geschwindigkeit und gleichem Ausmaß freigesetzt”.
